# Counter-ions that a name gives are not always drawn.
# How the values were obtained:
# Format in all cases: in vivo, C. elegans
# [1] = test system: protein misfolding and aggregation in transgenic worms; experiment: Preventative assay of protein aggregation (drug from hatching to L2 stage); conditions: exposure from hatching to L2 stage; scored at L3 and young adult
# Summary of the method: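 Transgenic worms were raised on drug plates at 20° C from hatching to L2 (about 3 days), then moved to solvent control plates. Aggregates were counted in L3 worms 8 hours later and in young adults 32 hours later. Scaled effectiveness = […], with A as solvent-only worms, B as lifelong-drug worms and C as pre-L2-exposed worms.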
# [2] = test system: Pdat-1::GFP+Pdat-1::torsinA worms (wt torsinA); experiment: 6-OHDA dopaminergic neurodegeneration in worms with wt torsinA
# Experimental: (§1) C. elegans nematodes were grown at 25° C. on NGM plates as described by Brenner (Brenner, Genetics, 1974, 77: 71-94). Two transgenic C. elegans lines were used for primary screens of the Prestwick small molecule library. A transgenic worm line expressing Pdat-1::GFP; with both wild type (Pdat-1::torsinA) or mutant (Pdat-1:::torsinA(ΔE)). Torsin-A expresses a phenotype that results in visible neurodegeneration after treatment with 6-OHDA. Transgenic worms were plated on drug plates and progeny were studied for morphological changes in the 8 dopaminergic neurons present in C. elegans.
# (§2) Drugs were administered to C. elegans according to a standard procedure (Rand and Johnson, Methods Cell Biol, 1995, 48: 187-204) by mixing the solubilized drug with the agar medium on which the worms are grown. […]
# (§3) Age-synchronized worms were obtained by treating gravid adults with 2% sodium hypochlorite and 0.5M NaOH to isolate embryos (Lewis Fleming, 1995). […] The worms were then washed and spread onto NGM plates seeded with bacteria (OP50) and scored at time points ranging from 2 to 72 h after 6-OHDA exposure.
# (§4) Immediately after 6-OHDA treatment, worms containing the transgenes were selected under a fluorescence dissecting microscope, based on the presence of GFP, and transferred to a fresh NGM plate seeded with OP50. […] For ease of analysis, only the four CEP DA neurons in the head of the worm were scored. […]
# [3] = test system: Pdat-1::GFP+Pdat-1::α-synuclein+Pdat-1:: torsinA (ΔE) worms; experiment: α-synuclein toxicity assay, mutant torsinA
# Summary of the method: (§5)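 C. elegans lines expressing GFP and α-synuclein in dopamine neurons, with wild-type or ΔE torsinA, exposed to compounds; readout is the share of worms keeping all 4 wild-type CEP dopamine neurons as 4-day adults.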
# [4] = test system: Pdat-1::GFP+Pdat-1::α-synuclein+Pdat-1::torsinA worms; experiment: α-synuclein toxicity assay, wt torsinA
# Summary of the method: as §5
# [5] = test system: Pdat-1::GFP+Pdat-1::torsinA (ΔE) worms (mutant torsinA); experiment: 6-OHDA dopaminergic neurodegeneration in worms with mutant torsinA
# Experimental: as §1, §2, §3, §4
# [6] = test system: protein misfolding and aggregation in transgenic worms; experiment: Corrective assay of protein aggregation (drug from L2 stage onward); conditions: drug exposure from L2 stage onward; scored at L3 and young adult
# Experimental: To see the corrective effect of the candidate drug compounds on protein misfolding and aggregation, five gravid adult worms were placed onto a solvent control plate and grown at 20° C. for approximately 3 days. 35-40 Fl worms at L2 stage were picked and transferred to a drug plate. Thirty worms at L3 stage were counted for aggregate number 8 hours later. Thirty young adults were analyzed 32 hours later.
# To calculate the scaled effectiveness of special regimen of drugs on worms based on standardized decrease in protein aggregates. The following formula was used: (A−B)/(A−C)×100%, where
# A=number of aggregates for worms growing on solvent control plates
# B=number of aggregates for worms grown on the specific drug plate for the entire life of the worms
# C=number of aggregates for worms that received exposure from L2 stage (until adulthood)
# If the regimen has no effect, the value would equal 0%. Conversely, if the regimen was as effective as raising the worms on the drug for their entire life, the value would equal 100%.
smiles,measurement,setting,value
"C=N[C@@H](C(=O)N[C@@H]1C(=O)N2[C@@H]1SC(C)(C)[C@@H]2C(=O)O)c1ccccc1 [Compound 235, Metampicillin sodium salt]",preventative effect on protein aggregation,[1],seem to be beneficial
same,neuroprotection against 6-OHDA insult,"[2]; listed as Metampicillin, sodium salt",provides neuroprotection
same,neuroprotection against 6-OHDA insult,[2]; listed as metampicillin sodium salt,only afforded in Pdat-1::GFP+Pdat-1::torsinA worms expressing wt torsinA
same,enhanced DA neuron survival,[3],no significant neuroprotection
same,enhanced wild type DA neuron survival,[4],30.3±7%
same,neuroprotection against 6-OHDA insult,[5],not protected
same,corrective effect on protein aggregation,[6],seem to be beneficial

# Source: patent publication US20070203079A1, “Methods of using small molecule compounds for neuroprotection” (priority 2005, published 2007)
